Key:
[1] = tested on: A498; assay: NCI 60 cell line screen (Renal Cancer); type: cell-based, human; details: for Growth percentage: A498, single dose 10 µM
[2] = tested on: SK-MEL-5; assay: NCI 60 cell line screen (Melanoma); type: cell-based, human; details: for Growth percentage: SK-MEL-5, single dose 10 µM
[3] = target: T1, CYP1A1 (Homo sapiens, UniProt P04798); assay: cytochrome P450 assay (DBF fluorescence)
T1 sequence (P04798 1-512): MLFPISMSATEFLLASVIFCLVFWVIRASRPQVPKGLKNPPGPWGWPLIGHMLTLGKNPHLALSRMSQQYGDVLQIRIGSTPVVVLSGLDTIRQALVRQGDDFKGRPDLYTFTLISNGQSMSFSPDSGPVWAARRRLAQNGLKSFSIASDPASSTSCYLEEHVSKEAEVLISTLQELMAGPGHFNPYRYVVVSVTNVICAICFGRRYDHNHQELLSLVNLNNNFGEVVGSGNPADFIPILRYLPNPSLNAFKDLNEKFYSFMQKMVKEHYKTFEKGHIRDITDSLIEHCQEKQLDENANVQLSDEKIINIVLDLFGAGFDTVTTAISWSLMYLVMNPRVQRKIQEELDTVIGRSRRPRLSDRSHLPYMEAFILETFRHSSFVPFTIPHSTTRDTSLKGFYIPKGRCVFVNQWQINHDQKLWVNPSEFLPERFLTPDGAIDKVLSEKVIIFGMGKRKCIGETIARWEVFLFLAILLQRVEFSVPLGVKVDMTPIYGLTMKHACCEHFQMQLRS

[4] = tested on: MOLT-4; assay: NCI 60 cell line screen (Leukemia); type: cell-based, human; details: for Growth percentage: MOLT-4, single dose 10 µM
[5] = tested on: K-562; assay: NCI 60 cell line screen (Leukemia); type: cell-based, human; details: for Growth percentage: K-562, single dose 10 µM
[6] = tested on: ACHN; assay: NCI 60 cell line screen (Renal Cancer); type: cell-based, human; details: for Growth percentage: single dose 10 µM
[7] = tested on: NCI-H460; assay: NCI 60 cell line screen (Non-Small Cell Lung Cancer); type: cell-based, human; details: for Growth percentage: NCI-H460, single dose 10 µM
[8] = tested on: NCI-H226; assay: as above; type: cell-based, human; details: for Growth percentage: NCI-H226, single dose 10 µM
[9] = tested on: RXF 393; assay: NCI 60 cell line screen (Renal Cancer); type: cell-based, human; details: for Growth percentage: RXF 393, single dose 10 µM
[10] = tested on: HS 578T; assay: NCI 60 cell line screen (Breast Cancer); type: cell-based, human; details: for Growth percentage: single dose 10 µM
[11] = tested on: CCRF-CEM; assay: NCI 60 cell line screen (Leukemia); type: cell-based, human; details: for Growth percentage: single dose 10 µM
[12] = tested on: COLO 205; assay: NCI 60 cell line screen (Colon Cancer); type: cell-based, human; details: for Growth percentage: COLO 205, single dose 10 µM
[13] = tested on: BT-549; assay: NCI 60 cell line screen (Breast Cancer); type: cell-based, human; details: for Growth percentage: BT-549, single dose 10 µM
[14] = tested on: SK-MEL-2; assay: NCI 60 cell line screen (Melanoma); type: cell-based, human; details: for Growth percentage: SK-MEL-2, single dose 10 µM
[15] = tested on: UACC-257; assay: NCI 60 cell line screen (Melanoma); type: cell-based, human; details: for Growth percentage: UACC-257, single dose 10 µM
[16] = tested on: LOX IMV1; assay: NCI 60 cell line screen (Melanoma); type: cell-based, human; details: for Growth percentage: LOX IMV1, single dose 10 µM
[17] = tested on: OVCAR-4; assay: NCI 60 cell line screen (Ovarian Cancer); type: cell-based, human; details: for Growth percentage: OVCAR-4, single dose 10 µM
[18] = tested on: SF295; assay: NCI 60 cell line screen (CNS Cancer); type: cell-based, human; details: for Growth percentage: SF295, single dose 10 µM
[19] = tested on: T-47D; assay: NCI 60 cell line screen (Breast Cancer); type: cell-based, human; details: single dose 10 µM
[20] = tested on: OVCAR-3; assay: NCI 60 cell line screen (Ovarian Cancer); type: cell-based, human; details: for Growth percentage: OVCAR-3, single dose 10 µM
[21] = tested on: NCI-H332M; assay: NCI 60 cell line screen (Non-Small Cell Lung Cancer); type: cell-based, human; details: for Growth percentage: single dose 10 µM
[22] = tested on: MDA-MB-435; assay: NCI 60 cell line screen (Melanoma); type: cell-based, human; details: for Growth percentage: MDA-MB-435, single dose 10 µM
[23] = tested on: 786-0; assay: NCI 60 cell line screen (Renal Cancer); type: cell-based, human; details: for Growth percentage: 786-0, single dose 10 µM
[24] = tested on: DU-145; assay: NCI 60 cell line screen (Prostate cancer); type: cell-based, human; details: for Growth percentage: DU-145, single dose 10 µM
[25] = tested on: MCF-7; assay: NCI 60 cell line screen (Breast Cancer); type: cell-based, human; details: for Growth percentage: MCF-7, single dose 10 µM
[26] = tested on: UO-31; assay: NCI 60 cell line screen (Renal Cancer); type: cell-based, human; details: for Growth percentage: UO-31, single dose 10 µM
[27] = tested on: HCT-15; assay: NCI 60 cell line screen (Colon Cancer); type: cell-based, human; details: for Growth percentage: HCT-15, single dose 10 µM
[28] = tested on: SNB-19; assay: NCI 60 cell line screen (CNS Cancer); type: cell-based, human; details: for Growth percentage: SNB-19, single dose 10 µM
[29] = tested on: U251 (AC in Table 3); assay: NCI 60 cell line screen (CNS Cancer); type: cell-based, human; details: for Growth percentage: U251, single dose 10 µM
[30] = tested on: TK-10; assay: NCI 60 cell line screen (Renal Cancer); type: cell-based, human; details: for Growth percentage: TK-10, single dose 10 µM
[31] = tested on: SN12C; assay: NCI 60 cell line screen (Renal Cancer); type: cell-based, human; details: for Growth percentage: single dose 10 µM
[32] = tested on: RPMI-8226; assay: NCI 60 cell line screen (Leukemia); type: cell-based, human; details: for Growth percentage: RPMI-8226, single dose 10 µM
[33] = tested on: SF-268; assay: NCI 60 cell line screen (CNS Cancer); type: cell-based, human; details: for Growth percentage: SF-268, single dose 10 µM
[34] = tested on: SR; assay: NCI 60 cell line screen (Leukemia); type: cell-based, human; details: single dose 10 µM

COc1ccc(C(c2cc(OC)c(OC)c(OC)c2)n2cncn2)cc1O (centres unmarked) [19e, 5-((1H-1,2,4-Triazol-1-yl)(3,4,5-Trimethoxyphenyl)methyl)-2-Methoxyphenol]
Growth percentage [1]: 9.66% | GI50 ([1]; Homo sapiens, A498, NCI 5 dose assay): 324 nM | GI50 ([2]; Homo sapiens, SK-MEL-5, NCI 5 dose assay): 440 nM | Growth percentage [2]: 14.60% | IC50 ([3]; IC50 CYP1A1): > 53800 nM | inhibition at 25 min, 20 µg/mL ([3]; human, recombinant CYP1A1, pH 7.4, probe dibenzylfluorescein (DBF), 2.0 μM): 18.1% | GI50 ([4]; Homo sapiens, MOLT-4, NCI 5 dose assay): 510 nM | Growth percentage [4]: 16.7% | GI50 ([5]; Homo sapiens, K562, K-562, NCI 5 dose assay): 427 nM | Growth percentage [5]: 8.34% | GI50 ([6]; Homo sapiens, NCI 5 dose assay): 653 nM | Growth percentage [6]: 52.36% | GI50 ([7]; Homo sapiens, NCI-H460, NCI 5 dose assay): 414 nM | Growth percentage [7]: 9.82% | GI50 ([8]; Homo sapiens, NCI-H226, NCI 5 dose assay): 1430 nM | Growth percentage [8]: 73.39% | GI50 ([9]; Homo sapiens, RXF 393, NCI 5 dose assay): 321 nM | Growth percentage [9]: -13.85% | GI50 ([10]; Homo sapiens, NCI 5 dose assay): 548 nM | Growth percentage [10]: 31.34% | GI50 ([11]; Homo sapiens, NCI 5 dose assay): 402 nM | Growth percentage [11]: 9.32% | Growth percentage [12]: -1.65% | GI50 ([12]; Homo sapiens, COLO 205, NCI 5 dose assay): 332 nM | Growth percentage [13]: 11.30% | GI50 ([13]; Homo sapiens, BT-549, NCI 5 dose assay): 618 nM | GI50 ([14]; Homo sapiens, SK-MEL-2, NCI 5 dose assay): 361 nM | Growth percentage [14]: 55.94% | GI50 ([15]; Homo sapiens, UACC-257, NCI 5 dose assay): > 100000 nM | Growth percentage [15]: 44.45% | GI50 ([16]; Homo sapiens, LOX IMV1, NCI 5 dose assay): 523 nM | Growth percentage [16]: 43.48% | GI50 ([17]; Homo sapiens, OVCAR-4, NCI 5 dose assay): 3020 nM | Growth percentage [17]: 72.08% | GI50 ([18]; Homo sapiens, SF-295, SF295, NCI 5 dose assay): 325 nM | Growth percentage [18]: 2.56% | Growth percentage [19]: 34.98% | GI50 ([20]; Homo sapiens, OVCAR-3, NCI 5 dose assay): 323 nM | Growth percentage [20]: 1.74% | GI50 ([21]; Homo sapiens, NCI 5 dose assay): 696 nM | Growth percentage [21]: 51.45% | GI50 ([22]; Homo sapiens, MDA-MB-435, NCI 5 dose assay): 181 nM | Growth percentage [22]: -46.16% | Growth percentage [23]: 28.10% | GI50 ([23]; Homo sapiens, 786-0, NCI 5 dose assay): 475 nM | Growth percentage [24]: 19.64% | GI50 ([24]; Homo sapiens, DU-145, NCI 5 dose assay): 530 nM | GI50 ([25]; Homo sapiens, MCF7, MCF-7, NCI 5 dose assay): 347 nM | Growth percentage [25]: 17.87% | GI50 ([26]; Homo sapiens, UO-31, NCI 5 dose assay): 903 nM | Growth percentage [26]: 57.96% | Growth percentage [27]: 10.04% | GI50 ([27]; Homo sapiens, HCT-15, NCI 5 dose assay): 438 nM | GI50 ([28]; Homo sapiens, SNB-19, NCI 5 dose assay): 578 nM | Growth percentage [28]: 33.31% | GI50 ([29]; Homo sapiens, U-251, cell line printed AC, NCI 5 dose assay): 446 nM | Growth percentage [29]: 15.32% | GI50 ([30]; Homo sapiens, TK-10, NCI 5 dose assay): > 100000 nM | Growth percentage [30]: 61.31% | GI50 ([31]; Homo sapiens, NCI 5 dose assay): 853 nM | Growth percentage [31]: 39.32% | GI50 ([32]; Homo sapiens, RPMI-8226, NCI 5 dose assay): 452 nM | Growth percentage [32]: 20.71% | GI50 ([33]; Homo sapiens, SF-268, NCI 5 dose assay): 469 nM | Growth percentage [33]: 48.75%

COc1ccc(C(c2cc(OC)c(OC)c(OC)c2)N2CCCC2)cc1 (centres unmarked) [25g]
Growth percentage [1]: 31.23% | Growth percentage [2]: 65.20% | Growth percentage [34]: 23.87% | Growth percentage [4]: 78.09% | Growth percentage [5]: 25.23% | Growth percentage [6]: 103.18% | Growth percentage [7]: 84.31% | Growth percentage [8]: 87.61% | Growth percentage [9]: 103.13% | Growth percentage [10]: 80.45% | Growth percentage [11]: 71.21% | Growth percentage [12]: 71.23% | Growth percentage [13]: 81.58% | Growth percentage [14]: 55.67% | Growth percentage [15]: 74.57% | Growth percentage [16]: 72.96% | Growth percentage [17]: 101.25% | Growth percentage [18]: 69.71% | Growth percentage [19]: 89.77% | Growth percentage [20]: 66.63% | Growth percentage [21]: 87.51% | Growth percentage [22]: -21.80% | Growth percentage [23]: 93.40% | Growth percentage [24]: 103.12% | Growth percentage [25]: 64.09% | Growth percentage [26]: 75.13% | Growth percentage [27]: 52.67% | Growth percentage [28]: 90.50% | Growth percentage [29]: 77.78% | Growth percentage [30]: 88.29% | Growth percentage [31]: 108.47% | Growth percentage [32]: 97.42% | Growth percentage [33]: 84.26%

— article PMC7926793, “Synthesis and Biological Evaluation of 1-(Diarylmethyl)-1H-1,2,4-triazoles and 1-(Diarylmethyl)-1H-imidazoles as a Novel Class of Anti-Mitotic Agent for Activity in Breast Cancer” (Pharmaceuticals, 2021)
